# According to patent publication US20080200405A1, “Drug Resistance Reversal In Neoplastic Disease” (priority 2007, published 2008):
# Like-named read-outs stand apart in the source and are kept apart here.
# Assays:
# lens endothelial cells = details: in vitro; cited from earlier work
# mouse V79 cells = details: cited from earlier work
# [1] = tested on: H2O2-induced angiogenesis in the CAM model; test: H2O2-induced angiogenesis in the CAM model; assay type: in vivo, chicken; details: for Branch pts ± SEM: H2O2 88 μM, 30 ng
# Experimental: (§1) In vivo neovascularization was examined by the method previously described by Auerbach et al. (J. Dev. Biol. 41:391-394 (1974)). Ten-day old chicken embryos were purchased from Spafas, Inc. (Preston, Conn.) and were incubated at 37° C. with 55% relative humidity. In the dark, with the aid of a candling lamp, a small hole was punctured in the shell concealing the air sac with a hypodermic needle. A second hole was punctured in the shell on the broadside of the egg directly over an […] portion of the embryonic membrane, as observed during candling. An artificial air sac was created beneath the second hole by applying gentle vacuum to the first hole using a small rubber squeeze bulb. The vacuum caused the chorioallantoic membrane (CAM) to separate from the shell.
# A pro-angiogenic agent was added to induce new blood vessel branches on the CAM of 10-day old embryos. Filter disks of #1 filter paper (Whatman International, United Kingdom) were punched using a small puncher and were soaked in 3 mg/mL cortisone acetate (Sigma, St. Louis, Mo.) in a solution (95% ethanol and water). The disks were subsequently air dried under sterile conditions. The disks were then suspended in PBS (Phosphate Buffered Saline) and placed on growing CAMs. Filters treated with TP-H (TEMPOL-H) or TEMPOL and/or H2O2 or TP-H and/or bFGF or VEGF were placed on the first day of the 3-day incubation.
# (§2) The number of vessel branch points contained in a circular region equal to the area of a filter disk was counted for each section. Percent inhibition data are expressed as the quotient of the experimental value minus the negative control value divided by the difference between the positive control value and the negative control value. One image was counted in each CAM preparation, and findings from eight CAM preparations were analyzed for each treatment condition. In addition, each experiment was performed three times. The resulting angiogenesis index is the mean ±SEM (Standard Error of Measurement) of new branch points in each set of treatment. Statistical analysis of blood vessel branching patterns are performed by 1-way analysis of variance (ANOVA) comparing experimental with corresponding control groups. Statistical significance differences are assessed at P value of <0.05.
# TP-H (TEMPOL-H, the hydroxylamine reduced form of the nitroxide 4-hydroxy-2,2,6,6-tetramethylpiperidin-1-yloxy) or TEMPOL (4-hydroxy-2,2,6,6-tetramethylpiperidine-N-oxyl radical) was applied to the CAM model study to determine its respective anti-angiogenesis effects according to the materials and methods provided in Example 1. H2O2 was used to induce angiogensis in the CAM model.
# [2] = tested on: selenite induced cataract; test: Selenite induced cataract in mice; details: mouse, in vivo
# Text: In addition, as mentioned above, there is no precedent for the prevention of growth factor-induced angiogenesis by either TEMPOL or hydroxylamines.
# TNFα = test: Measurement of LPS Induced-TNFα in THP-1 Cells; assay type: cell-based, human; details: Homo sapiens, THP-1
# [3] = tested on: Doxorubicin resistant SaOS2 cells; test: Cancer cell viability (MTT) in the presence or absence of doxorubicin; assay type: cell-based, human; details: compound 50 ug/mL, 3 days
# Lipid peroxidation = Lipid peroxidation inhibition (method of Ohkawa); assay type: biochemical
# [4] = tested on: doxorubicin-sensitive and doxorubicin-resistant cells (osteosarcoma, breast cancer, neuroblastoma); test: Evaluation of chemoresistance, Compound 4 alone or combined with doxorubicin; assay type: cell-based, human
# Experimental: A method for evaluating a compound's propensity to overcome cancer cell chemoresistance is described in “Caspase Inhibition Switches Doxorubicin-Induced Apoptosis To Senescence”, Abdelhadi Rebbaa, Xin Zheng, Pauline M Chou and Bernard L Mirkin, Oncogene (2003) 22, 2805-2811. Human neuroblastoma SKN-SH cells (ATCC Cat. No. HTB-11) were cultured in Dulbecco's Modified Eagles Medium (DMEM; Gibco, Grand Island, N.Y.) supplemented with 10% fetal bovine serum (FBS; Sigma-Aldrich, St. Louis, Mo.) at 37° C. in a 95% Air/5% CO2 atmosphere. Resistant human cancer cells to doxorubicin were selected by stepwise exposure to drug concentrations ranging from 10^−9M-10^−6M over 3 months. They were then subjected to treatment with the doxorubicin alone or in combination with hydroxylamine compounds. The cells were incubated with the drugs for 72 hours, and cell viability was measured by the MTT assay. This consists of adding 10 μl/well of MTT (5 mg/ml solution) and incubation for 4 h at 37° C. The precipitate formed is then solubilized by addition of 100 μl of HCL 0.5 N/Isopropanol and incubation for 15 hours at 37° C. The optical density is measured at 570 nm and cell survival is estimated by comparison to untreated cells. Each point represents 4 wells data represent average +/−SE. Additionally, molecular pathways that might be associated with increased chemo-responsiveness with these compounds were investigated.
# Cytotoxic activity of doxorubicin and hydroxylamine analogs were quantitatively determined by a colorimetric assay utilizing 3-(4,5-dimethyl-2-thiazolyl) 2,5-diphenyl tetrazolium bromide (MTT; Sigma-Aldrich, St. Louis, Mo.). Briefly, cells were seeded at 10^4 cells/well in 96-well plates and maintained in culture for 24 hours at 37° C. in DMEM supplemented with 10% FBS. […] The optical density of this solution was measured at 570 nm and the percentage of viable cells estimated by comparison with untreated control cells.
# [5] = tested on: bFGF-induced angiogenesis in the CAM model; test: bFGF (FGF2)-stimulated CAM model; assay type: in vivo, chicken; details: bFGF/FGF2 1 ug, 30 ug injected
# Experimental: as §1
# For inducing angiogenesis, sterile filter disks were saturated with bFGF (1 μg/ml) (Life Technologies, Gaithersburg, Md.) or other pro-angiogenesis factors and control disks were saturated with PBS without Calcium and Magnesium. Control disks were saturated with PBS without Calcium and Magnesium.
# After 24-48 hr, 10-25 ul of test agent was injected intravenously or added topically into the CAM membrane. Eight-Ten eggs/treatment group were used.
# as §2
# The CAM model protocol was modified to include stimulus with bFGF. The effect of injected OT 551 was assayed.
# TP-H was applied to the CAM model study to determine its respective anti-angiogenesis effects according to the materials and methods provided in Example 1. Basic Fibroblast Growth Factor (bFGF) was used to induce angiogenesis in the CAM model.
# Compounds were introduced via injection to the CAM model study to determine its respective anti-angiogenesis effects according to the materials and methods provided in Example 1. bFGF was used to induce angiogenesis in the CAM model.
# [6] = tested on: Human whole blood clot formation; details: for Clot Strength - MA / Time to Clot Initiation R: TEG, human whole blood
# Experimental: TEG: Human whole blood (±drugs) was added to the cylindrical cuvette (“cup”). […] The cup oscillates 4°45′ ( 1/12 radian) in either direction every 4.5 seconds, with a 1-second mid-cycle stationary period, resulting in a frequency of 0.1 Hz and a maximal shear rate of 0.1 per second. The pin was suspended by a torsion wire that acts as a torque transducer. […] The torque experienced by the pin (relative to the oscillation of the cup) was plotted as a function of time (Forsythe, S. A. M. S. K. M. S. (2000): “Comparative In Vitro Efficacy of Different Platelet Glycoprotein IIb/IIIa Antagonists on Platelet-Mediated Clot Strength Induced by Tissue Factor With Use of Thromboelastography.” Arteriosclerosis, Thrombosis, and Vascular Biology 20: 1162).
# (Data represent mean ±SD, n=6 (blood form normal healthy volunteers), *P<0.01 as compared to control)
# [7] = Bevacizumab 1 ng/cup + Comp. 4 1 uM
# [8] = Bevacizumab 1 ng/cup + Comp. 4 10 uM
# [9] = Ranibizumab 1 ng/cup + Comp. 4 1 uM
# [10] = Ranibizumab 1 ng/cup + Comp. 4 10 uM
smiles,measurement,setting,value
"CC1(C)CC(O)CC(C)(C)N1[O] [TEMPOL, 4-hydroxy-2,2,6,6-tetramethylpiperidine-N-oxyl radical, reference compound]",prevention of X-ray radiation damage to lens endothelial cells,lens endothelial cells,prevented X-ray radiation damage
same,radioprotection of mouse V79 cells,mouse V79 cells,concentration dependent
same,Branch pts ± SEM,[1]; 100 μg,152.2 ± 18.8
same,Branch pts ± SEM,[1]; 200 μg,151.8 ± 12.5
same,Branch pts ± SEM,[1]; 400 μg,150.0 ± 7.7
same,Branch pts ± SEM,[1]; 800 μg,122.8 ± 3.0
same,inhibition of angiogenesis induced by super-maximal concentrations of H2O2,[1]; in vivo,effectively inhibited
same,prevention of selenite induced cataract,[2],not effective
"CC1(C)CC(Oc2nsnc2N2CCOCC2)CC(C)(C)N1O.Cl [Compound 4, 4-(4-(2,2,6,6-tetramethylpiperidin-1-hydroxyl-4-yloxy)-1,2,5-thiazol-3-yl)morpholine hydrogen chloride]",inhibition at 10 µM,"TNFα; compound 10 uM, 5 ng/mL LPS, read-out: Mean Percent Inhibition of TNF-alpha using 5 ng/mL LPS",61 ± 10%
same,IC50,TNFα; read-out: TNFalpha IC50,6.7 µM
same,"Mean OD (×10^−3), MTT viability",[3]; Dox. 10^−6 M (+),88.00 ×10^−3
same,"Mean OD (×10^−3), MTT viability",[3]; absence of Dox. (−),468.50 ×10^−3
same,% Lipid Peroxidation inhibition (at 1 uM),Lipid peroxidation; 1 uM,87.0%
same,"Lipid Peroxidation Inhibition, % Inhibition",Lipid peroxidation; 10 uM,91.4%
same,"underlying mechanism (cell cycle arrest, apoptosis markers)",[4],increased expression of p21/WAF1 and caspase-3 activation
same,reversal of drug resistance,"[4]; combined with doxorubicin, osteosarcoma, breast cancer, neuroblastoma",strong ability to reverse drug resistance
same,"killing of cells, compound alone",[4]; doxorubicin-sensitive and doxorubicin-resistant cells,enhanced the killing of both doxorubicin-sensitive (P<0.001) and doxorubicin-resistant cells
same,inhibition in vivo at 0.03 mg,"[5]; Gallus gallus, read-out: % Inhibition ± SEM",92.8 ± 16.5%
same,Branch pts ± SEM,[5],72.3 ± 12.2
same,Clot Strength - MA,[6]; [7],9.6 ± 2.3 mm
same,Time to Clot Initiation R,[6]; [7],14.3 ± 2.2 min
same,Clot Strength - MA,[6]; [8],5.0 ± 1.2 mm
same,Time to Clot Initiation R,[6]; [8],21.3 ± 4.2 min
same,Clot Strength - MA,[6]; [9],6.7 ± 1.5 mm
same,Time to Clot Initiation R,[6]; [9],16.8 ± 1.7 min
same,Clot Strength - MA,[6]; [10],2.7 ± 0.7 mm
same,Time to Clot Initiation R,[6]; [10],23.3 ± 2.3 min
same,effect on clot formation with Bevacizumab/Ranibizumab,[6]; compound 4 at 1 ug and 10 ug,delayed the clot formation
